Measured values taken from US20220395438A1, “TOOTH WHITENING COMPOSITION” (Universitat Autonoma de Barcelona, priority 2019, published 2022).

Experiment: Tooth whitening treatments at 20 minutes according to 2^2 factorial design (colorimetric ΔE)
Parameters: species or system bovine
Settings: 8 specimens per treatment

SMILES: O=S([O-])S(=O)(=O)[O-].[Na+].[Na+] [Comparative 2, sodium metabisulfite]
- increase in the whiteness of the tooth, ΔE ± standard deviation (3 minutes of treatment): 7.3 ± 1.5
- increase in the whiteness of the tooth, ΔE ± standard deviation (3 minutes of treatment, listed as MBS): 7.3
- increase in the whiteness of the tooth, ΔE ± standard deviation (6 minutes of treatment): 12.9 ± 0.8
- increase in the whiteness of the tooth, ΔE ± standard deviation (9 minutes of treatment): 14.7 ± 1.8
- increase in the whiteness of the tooth, ΔE ± standard deviation (14 minutes of treatment): 14.8 ± 1.7
- increase in the whiteness of the tooth, ΔE ± standard deviation (20 minutes of treatment): 16.2 ± 1.7
